Here are results for 24 compounds from ChEMBL document CHEMBL2346580, “Design, synthesis and SAR investigation of thienosultam derivatives as ADAMTS-5 (aggrecanase-2) inhibitors” (Bioorg Med Chem Lett, 2013).

Each structure is given as a SMILES string.

Series [1] deals with T1, A disintegrin and metalloproteinase with thrombospondin motifs 5 (Homo sapiens) (UniProt Q9UNA0).
T1 sequence (whole entry): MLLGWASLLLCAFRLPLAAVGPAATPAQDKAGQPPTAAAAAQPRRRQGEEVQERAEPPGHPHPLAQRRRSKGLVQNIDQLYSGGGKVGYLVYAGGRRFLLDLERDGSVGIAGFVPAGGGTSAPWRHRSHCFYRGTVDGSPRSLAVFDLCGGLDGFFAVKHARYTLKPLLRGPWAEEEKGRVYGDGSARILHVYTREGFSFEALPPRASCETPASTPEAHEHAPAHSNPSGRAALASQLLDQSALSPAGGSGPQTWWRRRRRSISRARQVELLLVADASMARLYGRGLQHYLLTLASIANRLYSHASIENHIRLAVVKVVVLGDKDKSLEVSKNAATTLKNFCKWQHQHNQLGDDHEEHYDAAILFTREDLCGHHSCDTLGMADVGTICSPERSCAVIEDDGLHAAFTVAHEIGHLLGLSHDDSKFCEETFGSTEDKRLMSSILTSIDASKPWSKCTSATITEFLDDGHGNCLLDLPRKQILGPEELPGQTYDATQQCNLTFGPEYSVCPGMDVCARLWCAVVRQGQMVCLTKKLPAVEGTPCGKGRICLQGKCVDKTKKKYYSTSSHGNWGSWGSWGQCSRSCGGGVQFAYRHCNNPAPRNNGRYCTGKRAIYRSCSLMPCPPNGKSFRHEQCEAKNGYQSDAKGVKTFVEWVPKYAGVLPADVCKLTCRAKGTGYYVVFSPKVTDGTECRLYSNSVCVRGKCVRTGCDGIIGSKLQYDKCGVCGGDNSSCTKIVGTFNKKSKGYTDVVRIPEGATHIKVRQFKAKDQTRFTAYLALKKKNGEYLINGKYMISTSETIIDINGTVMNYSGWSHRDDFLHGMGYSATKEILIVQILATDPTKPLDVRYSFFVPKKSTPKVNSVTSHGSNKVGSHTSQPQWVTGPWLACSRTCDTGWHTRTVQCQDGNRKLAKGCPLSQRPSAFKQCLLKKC
In words: Inhibition of ADAMTS5 (unknown origin) using QF-peptide containing an aggrecanase cleavage site by FRET assay.

The species entered for the next series is Homo sapiens. The series can be described thus: Selectivity ratio of inhibition of MMP2 (unknown origin) to ADAMTS5 (unknown origin).
The target of series [2] is 72 kDa type IV collagenase (Homo sapiens) (UniProt P08253). The series can be described thus: Inhibition of MMP2 (unknown origin).
Sequence of 72 kDa type IV collagenase (Homo sapiens) (P08253 110-660 limits assumed): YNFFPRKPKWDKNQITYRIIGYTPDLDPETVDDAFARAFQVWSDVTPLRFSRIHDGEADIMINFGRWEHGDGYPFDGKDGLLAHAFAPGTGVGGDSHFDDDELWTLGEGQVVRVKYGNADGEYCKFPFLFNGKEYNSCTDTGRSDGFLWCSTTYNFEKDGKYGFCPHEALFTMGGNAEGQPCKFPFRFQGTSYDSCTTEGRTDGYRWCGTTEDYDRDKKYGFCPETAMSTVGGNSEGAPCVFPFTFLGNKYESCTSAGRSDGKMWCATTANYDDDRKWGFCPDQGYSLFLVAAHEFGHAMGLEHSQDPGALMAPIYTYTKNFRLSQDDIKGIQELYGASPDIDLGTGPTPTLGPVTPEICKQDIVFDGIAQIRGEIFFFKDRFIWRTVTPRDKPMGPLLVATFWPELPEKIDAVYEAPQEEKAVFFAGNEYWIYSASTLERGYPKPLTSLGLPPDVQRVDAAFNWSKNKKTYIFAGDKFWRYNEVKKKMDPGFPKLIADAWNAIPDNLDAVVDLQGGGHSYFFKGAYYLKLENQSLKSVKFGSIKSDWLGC
The target of series [3] is Matrix metalloproteinase-14 (Homo sapiens) (UniProt P50281). The series can be described thus: Inhibition of MMP14 (unknown origin).
The target in series [4] is T1, A disintegrin and metalloproteinase with thrombospondin motifs 5 (Homo sapiens). The series can be described thus: Inhibition of ADAMTS5 (unknown origin) using QF-peptide containing an aggrecanase cleavage site at 10 uM by FRET assay.
The target in series [5] is Stromelysin-1 (Homo sapiens) (UniProt P08254). The series can be described thus: Inhibition of MMP3 (unknown origin).
Sequence of Stromelysin-1 (Homo sapiens) (P08254 100-477 limits assumed): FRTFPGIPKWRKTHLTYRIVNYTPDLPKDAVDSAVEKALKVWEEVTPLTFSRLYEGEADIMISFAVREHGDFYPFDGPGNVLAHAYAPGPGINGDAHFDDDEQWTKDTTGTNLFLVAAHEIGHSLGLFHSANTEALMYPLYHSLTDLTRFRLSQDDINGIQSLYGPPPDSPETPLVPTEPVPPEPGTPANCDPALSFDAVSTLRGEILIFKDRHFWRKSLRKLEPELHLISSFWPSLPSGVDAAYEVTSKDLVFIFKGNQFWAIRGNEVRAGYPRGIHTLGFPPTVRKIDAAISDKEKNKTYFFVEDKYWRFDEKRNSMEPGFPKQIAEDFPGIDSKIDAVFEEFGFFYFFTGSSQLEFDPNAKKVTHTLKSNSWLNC
Series [6] addresses T2, A disintegrin and metalloproteinase with thrombospondin motifs 4 (Homo sapiens) (UniProt O75173).
T2 sequence (whole entry): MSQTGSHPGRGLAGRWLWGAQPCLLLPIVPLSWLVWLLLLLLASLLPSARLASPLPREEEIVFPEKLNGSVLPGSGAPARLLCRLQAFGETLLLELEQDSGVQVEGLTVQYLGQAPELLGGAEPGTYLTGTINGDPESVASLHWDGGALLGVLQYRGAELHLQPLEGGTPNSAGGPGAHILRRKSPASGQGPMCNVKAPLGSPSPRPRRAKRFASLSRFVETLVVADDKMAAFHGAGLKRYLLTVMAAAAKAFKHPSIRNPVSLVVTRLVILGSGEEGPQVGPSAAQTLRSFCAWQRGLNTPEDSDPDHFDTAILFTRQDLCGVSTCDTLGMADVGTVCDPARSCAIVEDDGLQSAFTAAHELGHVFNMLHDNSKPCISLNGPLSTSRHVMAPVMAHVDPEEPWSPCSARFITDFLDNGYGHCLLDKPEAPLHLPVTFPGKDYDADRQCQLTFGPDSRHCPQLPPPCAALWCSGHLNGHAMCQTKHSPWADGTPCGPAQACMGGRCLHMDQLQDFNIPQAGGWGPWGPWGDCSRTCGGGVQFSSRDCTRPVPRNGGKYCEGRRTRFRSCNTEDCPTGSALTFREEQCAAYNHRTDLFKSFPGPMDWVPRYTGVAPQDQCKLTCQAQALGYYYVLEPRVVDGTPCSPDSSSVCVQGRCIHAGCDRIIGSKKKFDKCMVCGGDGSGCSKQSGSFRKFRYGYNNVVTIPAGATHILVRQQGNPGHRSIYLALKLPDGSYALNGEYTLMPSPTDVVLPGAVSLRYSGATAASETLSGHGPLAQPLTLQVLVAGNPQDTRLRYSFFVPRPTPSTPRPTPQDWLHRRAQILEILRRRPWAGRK
In words: Inhibition of ADAMTS4 (unknown origin) at 10 uM.

In series [7] the target is T2, A disintegrin and metalloproteinase with thrombospondin motifs 4 (Homo sapiens). The series can be described thus: Inhibition of ADAMTS4 (unknown origin).
The nature of series [8]: Clearance in Sprague-Dawley rat at 1 mg/kg, iv and 5 mg/kg, po. The series is classed as ADME, organism-based. As to conditions: in vivo.
Series [9] in a line: AUC (0 to infinity) in Sprague-Dawley rat at 1 mg/kg, iv and 5 mg/kg, po. Format: ADME, organism-based. As to conditions: plasma.
For series [10], the system named is Rattus norvegicus. The series can be described thus: Cmax in Sprague-Dawley rat at 1 mg/kg, iv and 5 mg/kg, po. Format: ADME, organism-based. As to conditions: in vivo.
The nature of series [11]: Half life in Sprague-Dawley rat at 1 mg/kg, iv and 5 mg/kg, po. Format: ADME, organism-based. As to conditions: in vivo.
Series [12] in a line: Volume of distribution at steady state in Sprague-Dawley rat at 1 mg/kg, iv and 5 mg/kg, po. The series is classed as ADME, organism-based. As to conditions: in vivo, read-out: Vdss.
The subject of series [13] is Rattus norvegicus. The series can be described thus: (§1) Oral bioavailability in Sprague-Dawley rat at 5 mg/kg. The series is classed as ADME, organism-based. As to conditions: in vivo.
A short description of series [14]: as §1. Format: ADME, organism-based. As to conditions: Sprague-Dawley, in vivo.

Regarding `CCC(C(=O)O)N1Cc2sc(-c3ccc(/C=C/c4ccccc4)cc3)cc2S1(=O)=O` (racemic), the INH is 1.4 µM in [1] and 3.9 µM in [2]. In addition, the Ratio in the series listed under Homo sapiens is 2.79.
Taken in the same sequence, the figures for `CCC(C(=O)O)N1Cc2sc(/C=C/c3ccc(C(F)(F)F)cc3)cc2S1(=O)=O` (racemic) were 3.2 µM, 2 µM and 0.63.
Turning to `CCC(C(=O)O)N1Cc2sc(-c3ccc(-c4ccc(N(C)Cc5ccccc5)nc4)cc3)cc2S1(=O)=O` (racemic), the INH was 1 µM in [1] and more than 30 µM in series [2]. Further, the Ratio in the series listed under Homo sapiens was more than 30.
In the case of `CCC(C(=O)NO)N1Cc2sc(-c3ccc(-c4ccccc4)cc3)cc2S1(=O)=O` (racemic), the INH in series [3] was less than 30 µM; in series [2], 0.3 µM; in [5], 20 µM. Further, the inhibition – broadly, the percentage by which the read-out fell short of the control – in series [4] was determined as 3%; in series [6], 1.7%.
`CCC(C(=O)O)N1Cc2sc(C#CCC3CCCCC3)cc2S1(=O)=O` (racemic): the INH was 8.9 µM in series [1] and more than 30 µM in [2]. The Ratio in the series filed under Homo sapiens was more than 3.37.
For the compound `CCC(C(=O)O)N1Cc2sc(-c3ccc(-c4ccc(N(C)C)nc4)cc3)cc2S1(=O)=O` (racemic), the values for the INH in [1] and in series [2] were 7 µM and more than 30 µM, respectively. In addition, the Ratio in the series filed under Homo sapiens is more than 4.5.
Take `CCC(C(=O)O)N1Cc2sc(-c3ccc(-c4ccccc4)cc3)cc2S1(=O)=O` (racemic): the INH is 2.1 µM in series [1]; less than 5.1 µM in series [3]; 1.8 µM in [2]; 1.1 µM in series [7]; 1.2 µM in series [5]. For the same compound, in the series filed under Homo sapiens, the Ratio turned out to be 0.78. This compound also gave an inhibition in [6] of 1.6%.
With `CC(C)[C@H](NS(=O)(=O)c1ccc(-c2ccccc2)cc1)C(=O)O`, the INH in series [1] came to 8.2 µM; in series [2], 0.04 µM; in series [7] it was 3 µM; in series [5], 0.038 µM.
For `CCC(C(=O)O)N1Cc2sc(-c3ccc(-c4ccc5cnn(C)c5c4)cc3)cc2S1(=O)=O` (racemic), the INH in [1] stood at 0.3 µM; in [2], 4 µM. Moreover, the Ratio in the series filed under Homo sapiens was found to be 13.3.
Consider `CCC(C(=O)O)N1Cc2sc(-c3ccc(-c4cccnc4)cc3)cc2S1(=O)=O` (racemic), for which the figures for the INH in [1] and in series [2] were more than 10 µM and more than 30 µM, respectively.
On to `CCC(C(=O)O)N1Cc2sc(-c3ccc(-c4ccc5ccn(C)c5c4)cc3)cc2S1(=O)=O` (racemic), for which the INH in series [1] was 1 µM; in [2], 16.5 µM. For the same compound, the Ratio in the series listed under Homo sapiens worked out at 16.5.
On to `CCC(C(=O)O)N1Cc2sc(C#Cc3ccccn3)cc2S1(=O)=O` (racemic), for which the figures for the INH in series [1] and in series [2] were 9.3 µM and more than 30 µM, respectively. Also, the Ratio in the series listed under Homo sapiens is more than 3.23.
Turning to `CCC(C(=O)O)N1Cc2sc(C#Cc3ccc(N(C)C)cc3)cc2S1(=O)=O` (racemic), the INH in series [1] is 1.5 µM; in series [3], more than 30 µM; in series [2] it was more than 30 µM; in series [7], more than 10 µM; in series [5], more than 30 µM. This compound also had a clearance in series [8] of 58.3 mL/min/kg. Also, in series [9], the AUC(0-inf) – broadly, the area under the concentration-time curve extrapolated to infinity – turned out to be 106000 ng·h/mL. In addition, the Ratio in the series listed under Homo sapiens was more than 20. Besides, the concentration with Rattus norvegicus [10] peaked (Cmax) at 29500 ng/mL. In [11], the half-life – broadly, the time needed for the level to fall by half in the phase considered – was 2.8 h. The Vd in series [12] came out at 0.34 L/kg. Besides, the F in the series with Rattus norvegicus [13] was found to be 179%.
Consider `CCC(C(=O)O)N1Cc2sc(N3CCN(c4ccccc4)CC3)cc2S1(=O)=O` (racemic), for which the inhibition in series [4] came to 9%. For the same compound, in series [2], the INH is more than 30 µM.
As for `CCC(C(=O)O)N1Cc2sc(-c3ccc(-c4cnn(C)c4)cc3)cc2S1(=O)=O` (racemic), the INH in [1] is more than 10 µM; in series [2], more than 30 µM.
Consider `CCC(C(=O)O)N1Cc2sc(-c3ccc(-c4cccs4)cc3)cc2S1(=O)=O` (racemic), for which the values for the INH in series [1] and in series [2] were 1.3 µM and more than 30 µM, respectively. Besides, in the series listed under Homo sapiens, the Ratio is more than 23.
With `CCC(C(=O)NO)N1Cc2sc(-c3ccccc3)cc2S1(=O)=O` (racemic), the INH was determined as 2.1 µM in series [1]; 1.2 µM in [3]; 0.03 µM in series [2]; 1.1 µM in series [7]; 5.1 µM in series [5].
`CCC(C(=O)O)N1Cc2sc(-c3ccn(Cc4ccccc4)n3)cc2S1(=O)=O` (racemic) gave an inhibition in series [4] of 43.2%. Further, in series [2], the INH was more than 30 µM.
`CCC(C(=O)O)N1Cc2sc(-c3ccccc3)cc2S1(=O)=O` (racemic): the INH in [3] is more than 30 µM; in series [2], 16 µM; in series [5] it was 12 µM. Also, the figures for the inhibition in series [4] and in series [6] were 3% and 1.7%, respectively.
In the case of `CCC(C(=O)O)N1Cc2sc(-c3ccn(C#Cc4ccccc4)n3)cc2S1(=O)=O` (racemic), the values for the INH in series [1] and in series [2] were 4 µM and more than 30 µM, respectively. For the same compound, the Ratio in the series listed under Homo sapiens is more than 7.5.
As to `CCC(C(=O)O)N1Cc2sc(-c3ccc(-c4cnn(Cc5ccccc5)c4)cc3)cc2S1(=O)=O` (racemic), the INH in series [1] was 0.4 µM; in [3] it was more than 30 µM; in [2] it was more than 30 µM; in [7] it was 8 µM; in [5] it was more than 30 µM. The clearance in series [8] is 278 mL/min/kg. In series [9], this compound registered an AUC(0-inf) of 4730 ng·h/mL. For the same compound, the Ratio in the series filed under Homo sapiens is more than 75. Also, in the series on Rattus norvegicus [10], the peak level (Cmax) was 3090 ng/mL. The half-life in [11] is 1.8 h. Moreover, the Vd in series [12] was found to be 0.33 L/kg. The bioavailability (as a rule, the share of a dose that reaches the circulation, judged against a reference dose that is usually intravenous) in [14] is 47%.
Turning to `CCC(C(=O)O)N1Cc2sc(-c3ccc(-c4ccsc4)cc3)cc2S1(=O)=O` (racemic), the INH in series [1] was 2.3 µM; in [2], more than 30 µM. The Ratio in the series filed under Homo sapiens was more than 13.
As for `CCC(C(=O)O)N1Cc2sc(C#Cc3ccc(-c4ccccc4)cc3)cc2S1(=O)=O` (racemic), the INH is 1.5 µM in series [1] and more than 30 µM in [2]. Moreover, in the series filed under Homo sapiens, the Ratio was more than 20.
As for `CCC(C(=O)O)N1Cc2sc(C#Cc3cc(C(F)(F)F)cc(C(F)(F)F)c3)cc2S1(=O)=O` (racemic), the INH in series [1] is 4.9 µM; in series [2] it was more than 30 µM. In addition, in the series listed under Homo sapiens, the Ratio is more than 6.12.
